Measurements published in patent US20180264124A1, “DRUG COMPLEX” (Shimadzu Corporation, priority 2015, published 2018).
Ends that are not written are not given here.

Test system: HUVEC
Experiment: HUVEC growth inhibition test (WST-1 assay)
Details: 25 ng/mL VEGF, 24 hours

Substance: YT1-Cem: non-VEGF-binding helix-loop-helix peptide YT1-Cys (SEQ ID NO: 18) reacted with CemCH2-S-TNB; control complex (CAELAALEAELAALEGGGGGGGKLAALKAKLAALKA; also: Cem conjugated via the Cys (CemCH2-S-TNB reaction))
- cell growth inhibition: did not inhibit cell growth
